In article PMC4949444 (Scientific Reports, 2016):

Test system: Human mesenchymal stem cells (MSC)
Assay: Adipogenic differentiation of human mesenchymal stem cells
Format: cell-based
Excerpt: Figure 2 Effect of VCE-003.2 on adipogenic differentiation. Human mesenchymal stem cells (MSC) were differentiated in adipogenic medium (AM) in the presence of RZG or […] VCE-003.2 and adipogenic markers were characterized. (a) Quantification of oil red (ORO) positive cells after 21 days of differentiation. (b) Representative images of accumulated fat vesicles stained with oil red (Bar size, 50 μm). (c) Gene expression of PPAR-γ2, LPL, CEBPA, ADIPOQ and FABP4 in MSCs differentiated during 18 days. Data represent the percentage of increase over AM considered as the 100% of adipogenic induction. Experiments were performed from three different human MSC preparations each one obtained from a different bone marrow sample.
Reina Sofia University Hospital review board.

SMILES: CCCCCC1=C(NCC)C(=O)C(C/C=C(\C)CCC=C(C)C)=C(O)C1=O [VCE-003.2]
- percentage of Oil Red O positive cells (1 and 2.5 μM vs 1 μM RZG, adipogenic medium, 21 days): never achieved the percentage of Oil Red O positive cells (ORO^+) induced by RZG
- lipid droplets (morphological examination) (compared to RZG): lipid droplets are less numerous and smaller
- expression of adipogenic differentiation markers PPARγ, LPL, CEBPA, ADIPOQ, FABP4 (compared to cells treated with RZG): sensibly lower
